Experimental data published in patent publication US6642178B2, “Adjuvant blend for enhancing efficacy of pesticides” (priority 2001, dated 2003).

Tests used:
green foxtail = test: Green foxtail control with nicosulfuron as influenced by adjuvants (greenhouse); assay type: in vivo; conditions: nicosulfuron 0.04 oz/A, no adjuvant; 2 WAT
Text: TABLE 3 includes the results of assessment made 2 WAT (weeks after treatment).

large crabgrass = test: Large crabgrass control with nicosulfuron as influenced by adjuvants (greenhouse); assay type: in vivo; conditions: nicosulfuron 0.2 oz/A, no adjuvant, 3 WAT
Text: TABLE 2 includes the results of assessment made 3 WAT (weeks after treatment). Visible injury rating is on a scale 0 to 100% with 0% representing no visible injury and 100% complete kill.

SMILES: COc1cc(OC)nc(NC(=O)NS(=O)(=O)c2ncccc2C(=O)N(C)C)n1 [nicosulfuron]
- % fresh weight reduction (green foxtail): 0%
- % fresh weight reduction (large crabgrass): 57%
- % visible injury (large crabgrass; scale 0-100%): 31%
